# Assay results published in article PMC8316980 (ACS chemical neuroscience, 2019).
# Biological target: T1, MD-2 (myeloid differentiation protein 2) (Homo sapiens, UniProt Q9Y6Y9)
# T1 sequence (Q9Y6Y9 19-160): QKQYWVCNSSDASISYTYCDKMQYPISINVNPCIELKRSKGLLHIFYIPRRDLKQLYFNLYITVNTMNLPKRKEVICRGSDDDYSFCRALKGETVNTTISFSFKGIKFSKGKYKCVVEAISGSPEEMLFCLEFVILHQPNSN
# Assay: intrinsic fluorescence quenching titration
# Assay type: binding
structure (smiles),measurement,value
CN[C@@H](C)Cc1ccccc1 [methamphetamine],Kd,6.7 ± 0.6 µM
